These results are taken from PMC4138410 (Bioorganic & medicinal chemistry, 2014).

The conditions of data set [1]: pH 7.4; for %GSH remaining at 30 min: 0.5 h.
In data set [2] the target is T1, BoNT/A LC (Clostridium botulinum, UniProt P0DPI0). The data set can be described thus: biochemical. Format: biochemical.
Data set [3] has as its target T1, BoNT/A LC. Nature of the data set: biochemical. Format: biochemical. The source holds these as a separate data set.
The target of data set [4] is T1, BoNT/A LC. In kind it is biochemical.
The target in data set [5] is T1, BoNT/A LC. In kind it is biochemical. This is another data set of the same source.
Data set [6] deals with BoNT/A. The note with it: cited from earlier work.

Read-outs that look alike come from different tables or passages of the source.

T1 sequence (P0DPI0 2-425 limits assumed): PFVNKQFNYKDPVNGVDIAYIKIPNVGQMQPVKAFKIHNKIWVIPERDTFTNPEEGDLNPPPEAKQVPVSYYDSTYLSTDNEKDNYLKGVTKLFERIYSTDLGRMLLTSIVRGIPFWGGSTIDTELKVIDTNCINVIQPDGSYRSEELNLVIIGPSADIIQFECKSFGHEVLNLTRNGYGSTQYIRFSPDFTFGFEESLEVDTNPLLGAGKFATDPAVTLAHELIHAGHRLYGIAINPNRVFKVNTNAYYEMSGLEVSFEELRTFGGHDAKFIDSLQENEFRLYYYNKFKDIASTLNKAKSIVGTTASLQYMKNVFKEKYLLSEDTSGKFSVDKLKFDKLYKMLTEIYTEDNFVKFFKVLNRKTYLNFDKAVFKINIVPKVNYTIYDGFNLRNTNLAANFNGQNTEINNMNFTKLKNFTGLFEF

As for `O=C1C=C(Cl)C(=O)C=C1Cl` [Compound 1, 2,5-diCl-BQ], the “%GSH remaining at 10 s” value in data set [1] (10 s) came to 0%. Also, in data set [1], the “%GSH remaining at 30 min” value stood at 0%. Moreover, the “effect on catalytic activity (in words)” value in data set [2] is “completely abrogated catalytic activity”.

As to `O=C1C=CC(=O)C=C1` [Compound 3, BQ], the “irreversible/time-dependent inactivation in 66-mer assay (in words)” value in data set [3] is given as “comparable to the SNAPtide assay”.

In general, kinact/KI refers to the maximal inactivation rate divided by the concentration that gives half of it. `CC1=CC(=O)C=CC1=O` [Compound 12, 2-Me-BQ]: the kinact/KI in data set [2] stood at 3.5 M⁻¹ s⁻¹.

Turning to `O=C1C=CC(=O)c2c(O)ccc(O)c21` [Compound 13, 5,8-diOH-NQ], in data set [1], the “%GSH remaining at 30 min” value is listed as 39 (26) % and the “%GSH remaining at 1 hour” value is listed as 39 (26) %.

In the case of `COc1cccc2c1C(=O)C=CC2=O` [Compound 18, 5-OMe-NQ], in data set [1], the “%GSH remaining at 30 min” value is given as 27 (14) % and the “%GSH remaining at 1 hour” value was 27 (14) %.

For `O=C1C=CC(=O)c2cc(O)ccc21` [Compound 19, 6-OH-NQ], in data set [1], the “%GSH remaining at 30 min” value is recorded as 32 (22) % and the “%GSH remaining at 1 hour” value is reported as 32 (22) %.

Turning to `COC1=CC(=O)C(OC)=C(c2ccc(C)cc2)C1=O` [Compound 21, 2,5-diOMe-3-Tol-BQ], in data set [1], the “%GSH remaining at 30 min” value is on record as 49 (35) % and the “%GSH remaining at 1 hour” value is given as 49 (35) %.

`O=C1C=CC(=O)C(CC(=O)O)=C1` [Compound 22, 2-(3,6-Dioxocyclohexa-1,4-dien-1-yl)acetic acid]: the “inhibition of BoNT/A in 66-mer assay (in words)” value (shortened to “inhibition”) in data set [4] is on record as “fairly active”. Besides, the kinact/KI in data set [3] turned out to be 2.5 M⁻¹ s⁻¹.

As for `COC1=CC(=O)C=C(OC)C1=O` [Compound 24, 2,6-diOMe-BQ], in data set [1], the “%GSH remaining at 30 min” value was found to be 0%.

As for `CC1=CC(=O)C=C(C)C1=O` [Compound 25, 2,6-diMe-BQ], in data set [1], the “%GSH remaining at 30 min” value is reported as 0%.

For `NCC(=O)Nc1ccc(Oc2ccccc2)cc1` [Compound 28, 2-Amino-N-(4-phenoxyphenyl)acetamide], the “effect on BQ-mediated inactivation of BoNT/A (in words)” value in data set [5] is reported as “competed”.

For `O=C1C=CC(=O)C(CNCC(=O)Nc2cccc(OCc3ccccc3)c2)=C1` [Compound 30, N-[3-(Benzyloxy)phenyl]-2-{[(3,6-dioxocyclohexa-1,4-dien-1-yl)methyl]amino}acetamide], the “fold increase in potency by addition of BQ vs analogous amino acetamide” value (from here on “fold increase … vs analogous amino acetamide”) in data set [4] was 26 fold.

For `O=C1C=CC(=O)C(Nc2cccc(C(=O)NCc3ccc(Oc4ccccc4)cc3)n2)=C1` [Compound 31, 6-[(3,6-Dioxocyclohexa-1,4-dien-1-yl)amino]-N-(4-phenoxybenzyl)picolinamide], in data set [4], the “fold increase in activity by adding the phenoxyphenyl fragment” value is 7 fold and the “fold increase … vs analogous amino acetamide” value came out at 21 fold.

As for `O=C1C=CC(=O)C(Cn2cnc(C(=O)NCc3ccc(-c4ccccc4)cc3)n2)=C1` [Compound 32, N-([1,1′-Biphenyl]-4-ylmethyl)-1-[(3,6-dioxocyclohexa-1,4-dien-1-yl)methyl]-1H-1,2,4-triazole-3-carboxamide], the “fold increase … vs analogous amino acetamide” value in data set [4] worked out at 64 fold.

Consider `COc1ccc(OC)c(CNCC(=O)Nc2cccc(OCc3ccccc3)c2)c1` [Compound 33, N-[3-(Benzyloxy)phenyl]-2-[(2,5-dimethoxybenzyl)amino]acetamide], for which the “inhibition” value in data set [4] was “well tolerated”.

With `COc1ccc(OC)c(Nc2cccc(C(=O)NCc3ccc(Oc4ccccc4)cc3)n2)c1` [Compound 34, 6-[(2,5-Dimethoxyphenyl)amino]-N-(4-phenoxybenzyl)picolinamide], the “inhibition” value in data set [4] is listed as “decrease in activity”.

Turning to `O=C(NCc1ccc(Oc2ccccc2)cc1)c1ccccn1` [Compound 35, N-(4-phenoxybenzyl)picolinamide], the “inhibition” value in data set [4] is given as “high IC50 values”.

`COc1ccc(OC)c(Cn2cnc(C(=O)NCc3ccc(-c4ccccc4)cc3)n2)c1` [Compound 38, N-([1,1′-Biphenyl]-4-ylmethyl)-1-(2,5-dimethoxybenzyl)-1H-1,2,4-triazole-3-carboxamide]: the “inhibition” value in data set [4] is on record as “decrease in activity”.

For `O=C(NCc1ccc(-c2ccccc2)cc1)c1nc[nH]n1` [Compound 39, N-([1,1′-Biphenyl]-4-ylmethyl)-1H-1,2,4-triazole-3-carboxamide], in data set [4], the “inhibition” value is listed as “high IC50 values”.

As for `C=CC(=O)Nc1cccnc1` [Compound 41], the “inhibition” value in data set [4] is “weakly inhibited”. In data set [3], the “irreversible/time-dependent inactivation in 66-mer assay (in words)” value was “no irreversible inhibition”.

By Ki is commonly meant a dissociation constant, usually derived from enzyme kinetics or from competition with a known ligand. Consider `CS(=O)(=O)SCCCN` [MTSPA, (3-aminopropyl)methanethiosulfonate], for which the Ki in data set [6] was 7.7 µM.

As for `CCN1C(=O)C=CC1=O` [N-ethylmaleimide, reference compound], in data set [2], the “inactivation of BoNT/A in SNAPtide screen (in words)” value is listed as “weakly inactivated” and the “inhibitory rank in SNAPtide assay (in words)” value is on record as “one of the weakest inhibitors tested”.

With chicoric acid [CA], in data set [5], the “effect on BQ-mediated inactivation of BoNT/A (in words)” value is “not affected”.
